Experimental findings from patent US7378415B2, “Benzoxazine and quinoxaline derivatives and uses thereof” (Roche Palo Alto LLC, priority 2004, dated 2008) are described below.

Where a name gives a salt, the structure may show the parent alone.

Usually melting point stands for the temperature, or range, at which the solid turns liquid.

Data set [1] addresses T1, recombinant human 5-HT2A receptor (Homo sapiens, UniProt P28223).
T1 construct: expressed in transfected cells
The data set can be described thus: Radioligand binding, [3H]Ketanserin competition in CHO-K1 cell membranes. The note with it: [3H]Ketanserin displacement, pH 7.4, 32° C., read-out: pKi for the 5-HT2A receptor (converted). As to the method:
(§1) The binding activity of compounds of this invention in vitro was determined as follows. Duplicate determinations of 5-HT6 ligand affinity were made by competing for binding of [^3H]LSD in cell membranes derived from HEK293 cells stably expressing recombinant human 5-HT6 receptor. Duplicate determinations of 5-HT2A ligand affinity were made by competing for binding of [^3H]Ketanserin (3-(2-(4-(4-fluorobenzoyl)piperidinol)ethyl)-2,4(1H,3H)-quinazolinedione) in cell membranes derived from CHO-K1 cells stably expressing recombinant human 5-HT2A receptor.
(§2) Assay tubes containing [^3H] LSD or [^3H]Ketanserin (5 nM), competing ligand, and membrane were incubated in a shaking water bath for 75 min. at 37° C. (for 5-HT6) or 60 min. at 32° C. (for 5-HT2A), filtered onto Packard GF-B plates (pre-soaked with 0.3% PEI) using a Packard 96 well cell harvester and washed 3 times in ice cold 50 mM Tris-HCl. Bound [^3H] LSD or [^3H]Ketanserin were determined as radioactive counts per minute using Packard TopCount.
(§3) Displacement of [^3H]LSD or [^3H]Ketanserin from the binding sites was quantified by fitting concentration-binding data to a 4-parameter logistic equation:
(§4) [formula] where Hill is the Hill slope, [ligand] is the concentration of competing radioligand and IC50 is the concentration of radioligand producing half-maximal specific binding of radioligand. […]

In data set [2] the target is T2, recombinant human 5-HT6 receptor (Homo sapiens, UniProt P50406).
T2 construct: expressed in transfected cells
T2 sequence (P50406 whole entry): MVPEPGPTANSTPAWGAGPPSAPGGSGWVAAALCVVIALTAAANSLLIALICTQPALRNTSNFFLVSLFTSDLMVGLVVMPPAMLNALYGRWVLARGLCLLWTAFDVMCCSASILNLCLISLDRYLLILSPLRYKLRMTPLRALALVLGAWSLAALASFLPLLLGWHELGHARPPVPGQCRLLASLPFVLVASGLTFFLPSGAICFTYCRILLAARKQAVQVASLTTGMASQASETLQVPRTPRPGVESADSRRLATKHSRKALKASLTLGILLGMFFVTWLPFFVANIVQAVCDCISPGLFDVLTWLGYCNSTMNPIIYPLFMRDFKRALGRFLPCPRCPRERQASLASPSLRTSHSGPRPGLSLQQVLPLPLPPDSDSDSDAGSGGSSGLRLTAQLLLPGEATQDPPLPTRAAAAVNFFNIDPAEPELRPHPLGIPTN
Put plainly: Radioligand binding, [3H]LSD competition in HEK293 cell membranes. The note with it: [3H]LSD displacement, pH 7.4, 37° C., read-out: pKi for the 5-HT6 receptor (converted). As to the method:
as §1, §2, §3, §4

T1 sequence (P28223 whole entry): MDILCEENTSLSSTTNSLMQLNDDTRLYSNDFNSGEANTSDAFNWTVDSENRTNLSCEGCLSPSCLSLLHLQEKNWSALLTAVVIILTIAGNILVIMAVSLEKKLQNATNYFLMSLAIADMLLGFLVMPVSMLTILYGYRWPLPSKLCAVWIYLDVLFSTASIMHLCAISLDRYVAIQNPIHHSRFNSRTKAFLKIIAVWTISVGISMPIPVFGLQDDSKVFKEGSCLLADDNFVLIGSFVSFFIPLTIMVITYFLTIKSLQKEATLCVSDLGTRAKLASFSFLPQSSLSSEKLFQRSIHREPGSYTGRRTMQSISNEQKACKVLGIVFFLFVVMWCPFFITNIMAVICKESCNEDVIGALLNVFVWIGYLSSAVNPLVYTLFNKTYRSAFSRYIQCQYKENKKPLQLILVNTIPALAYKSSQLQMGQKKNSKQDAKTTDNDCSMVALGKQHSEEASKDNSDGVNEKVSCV

Consider `NCCNC(=O)N1CCOc2cc(S(=O)(=O)c3ccccc3)ccc21` (as salt: hydrochloride), for which the melting point was in the range of 220.9 to 221.3 °C.

For the compound `O=C(C1CCNC1)N1CCOc2cc(S(=O)(=O)c3ccccc3)ccc21` (centres unmarked) (as salt: hydrochloride), the melting point is 109.2 to 110.5 °C.

For the compound `O=S(=O)(c1ccccc1)c1ccc2c(c1)N(CC1=NCCN1)CCO2` (as salt: HCl), the melting point lay in the range of 114 to 116.1 °C.

`CN(C)CCCN1C(=O)COc2cc(S(=O)(=O)c3ccccc3)ccc21` (as salt: HCl) gave a melting point of 194 to 196.4 °C.

As to `O=S(=O)(c1ccccc1)c1ccc2c(c1)OCCN2C1CCNCC1` [Compound 22, 7-Benzenesulfonyl-4-piperidin-4-yl-3,4-dihydro-2H-benzo[1,4]oxazine], the Ki is approximately 8.13 nM in data set [1] and approximately 0.105 nM in data set [2].

`O=C1COc2cc(S(=O)(=O)c3ccccc3)ccc2N1CC1=NCCN1` (as salt: HCl) had a melting point of 113.7 to 116 °C.

With `CNCC(=O)N1CCOc2ccc(S(=O)(=O)c3ccccc3)cc21` (as salt: hydrochloride), the melting point lay within 233 to 235.5 °C.

Regarding `CN(C)CCCCN1C(=O)COc2cc(S(=O)(=O)c3ccccc3)ccc21` (as salt: HCl), the melting point fell in the range of 179 to 180 °C.

Consider `CNCCC(=O)N1CCOc2ccc(S(=O)(=O)c3ccccc3)cc21` (as salt: hydrochloride), for which the melting point was 208.3 to 214.7 °C.

With `O=C(C1CNC1)N1CCOc2cc(S(=O)(=O)c3ccccc3)ccc21` (as salt: hydrochloride), the melting point fell in the range of 182 to 186.6 °C.

`NCCN1CCOc2cc(S(=O)(=O)c3ccccc3)ccc21` (as salt: HCl) displayed a melting point of 261 to 265.1 °C.

`NCCN1C(=O)COc2cc(S(=O)(=O)c3ccccc3)ccc21` (as salt: hydrochloride) gave a melting point of 206.9 to 209.1 °C.

`O=S(=O)(c1ccccc1)c1ccc2c(c1)OCCN2CCn1ccnc1`: the melting point lay in the range of 61.5 to 64.4 °C.

Take `O=C1COc2ccc(S(=O)(=O)c3ccccc3)cc2N1CC1=NCCN1` (as salt: HCl): the melting point fell in the range of 250 to 252 °C.

In turn, `N=C(N)NC(=O)N1CCOc2cc(S(=O)(=O)c3ccccc3)ccc21` came in with a melting point of 61.2 to 67.3 °C.

Compound `CNCCCN1CCOc2cc(S(=O)(=O)c3ccccc3)ccc21` (as salt: hydrochloride) came in with a melting point of 188.3 to 193.2 °C.

Consider `NCCNC(=O)N1CCOc2ccc(S(=O)(=O)c3ccccc3)cc21`, for which the melting point is 172.4 to 181.3 °C.

Regarding `O=C(CC1=NCCN1)N1CCOc2cc(S(=O)(=O)c3ccccc3)ccc21`, the melting point was in the range of 44 to 47 °C.

For the compound `O=C(C1CCCNC1)N1CCOc2cc(S(=O)(=O)c3ccccc3)ccc21` (centres unmarked) (as salt: hydrochloride), the melting point lay in the range of 130.5 to 136.7 °C.

Consider `O=C(CC1=NCCN1)N1CCOc2cc(S(=O)(=O)c3ccccc3)ccc21` (as salt: HCl), for which the melting point lay within 202.3 to 203.6 °C.

As to `CN(C)CC(=O)N1CCOc2ccc(S(=O)(=O)c3ccccc3)cc21` (as salt: hydrochloride), the melting point lay within 199 to 203 °C.

Regarding `CC1(C)CN(c2ccncc2)c2ccc(S(=O)(=O)c3ccccc3)cc2O1` (as salt: hydrochloride), the melting point fell in the range of 112.7 to 120.4 °C.

For `CN(C)CCN1C(=O)COc2cc(S(=O)(=O)c3ccccc3)ccc21` (as salt: HCl), the melting point is 232.9 to 235.3 °C.

The compound `O=C(CC1=NCCN1)N1CCOc2ccc(S(=O)(=O)c3ccccc3)cc21` registered a melting point of 114 to 116.1 °C.

Regarding `NCCN1CCOc2ccc(S(=O)(=O)c3ccccc3)cc21` (as salt: HCl), the melting point was in the range of 242.9 to 245.9 °C.

The compound `O=S(=O)(c1ccccc1)c1ccc2c(c1)OCCN2C1CCNC1` (centres unmarked) (as salt: hydrochloride) came in with a melting point of 122.8 to 127.6 °C.

Take `N=C(N)NC(=O)N1CCOc2cc(S(=O)(=O)c3ccccc3)ccc21` (as salt: hydrochloride): the melting point was in the range of 148.5 to 151.6 °C.

In turn, `CC1(C)CN(C2CCNCC2)c2ccc(S(=O)(=O)c3ccccc3)cc2O1` (as salt: hydrochloride) yielded a melting point of 284.9 to 296.3 °C.
